Key:
Assay in all cases: Bliss interaction score (quartile over a dose matrix) (fitness difference); higher = more antagonism (negative = synergy)
[1] = test system: S. aureus DSM 20231
Outline: (§1)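 Fitness here means normalised growth, inferred for single drugs from the combination data. Growth was OD595 at entry into stationary phase, divided by the plate's robust no-drug mean and capped at 1. The Bliss score is observed minus expected fitness, with the expectation being the product, and its quartiles span technical, biological and donor/recipient replicates.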

[2] = test system: S. aureus Newman
Outline: as §1

[3] = test system: S. pneumoniae D39V
Outline: as §1

[4] = test system: B. subtilis 168
Outline: as §1
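Further: first quartile when negative (synergy) and third quartile when positive (antagonism).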

Compound	Bliss interaction score [1]	Bliss interaction score [2]	Bliss interaction score [3]	Bliss interaction score [4]
CC(=O)O[C@H]1C[C@@]2(C)[C@@H](C[C@@H](O)[C@H]3[C@@]4(C)CC[C@@H](O)[C@@H](C)[C@@H]4CC[C@@]32C)/C1=C(\CCC=C(C)C)C(=O)O [Fusidic acid] + CN[C@H](CC(C)C)C(=O)N[C@H]1C(=O)N[C@@H](CC(N)=O)C(=O)N[C@H]2C(=O)N[C@H]3C(=O)N[C@H](C(=O)N[C@H](C(=O)O)c4cc(O)cc(O)c4-c4cc3ccc4O)[C@H](O)c3ccc(c(Cl)c3)Oc3cc2cc(c3O[C@@H]2O[C@H](CO)[C@@H](O)[C@H](O)[C@H]2O[C@H]2C[C@](C)(N)[C@H](O)[C@H](C)O2)Oc2ccc(cc2Cl)[C@H]1O [Vancomycin]	0.0205	-0.0305	0.0729	-0.0397
CC(=O)O[C@H]1C[C@@]2(C)[C@@H](C[C@@H](O)[C@H]3[C@@]4(C)CC[C@@H](O)[C@@H](C)[C@@H]4CC[C@@]32C)/C1=C(\CCC=C(C)C)C(=O)O [Fusidic acid] + C[C@H]1COc2c(N3CCN(C)CC3)c(F)cc3c(=O)c(C(=O)O)cn1c23 [Levofloxacin]	0.0375	0.0554	0.119	0.034
N[C@@H]1CONC1=O [CycloserineD] + CO[C@@]12[C@H](COC(N)=O)C3=C(C(=O)C(C)=C(N)C3=O)N1C[C@@H]1N[C@@H]12 [MitomycinC]	-0.0633	-0.0532	0.108	0.0912
C[C@@H](O)[C@H]1C(=O)N2C(C(=O)O)=C(SCCNC=N)C[C@H]12 [Imipenem] + CC[C@H]1OC(=O)[C@H](C)C(=O)[C@H](C)[C@@H](O[C@@H]2O[C@H](C)C[C@H](N(C)C)[C@H]2O)[C@](C)(OC)C[C@@H](C)C(=O)[C@H](C)[C@H]2N(CCCCn3cnc(-c4cccnc4)c3)C(=O)O[C@]12C [Telithromycin]	-0.0311	-0.0123	0.0906	0.0561
N[C@@H]1CONC1=O [CycloserineD] + CCN(CC)CCOC(=O)c1ccc(N)cc1 [Procaine]	0.0639	0.0381	-0.0723	-0.0484
N[C@@H]1CONC1=O [CycloserineD] + CO[C@H]1/C=C/O[C@@]2(C)Oc3c(C)c(O)c4c(O)c(c(/C=N/N5CCN(C)CC5)c(O)c4c3C2=O)NC(=O)/C(C)=C\C=C\[C@H](C)[C@H](O)[C@@H](C)[C@@H](O)[C@@H](C)[C@H](OC(C)=O)[C@@H]1C [Rifampicin]	-0.0935	0.0463	0.163	0.0563
O=C(N[C@H](CO)[C@H](O)c1ccc([N+](=O)[O-])cc1)C(Cl)Cl [Chloramphenicol] + N[C@@H]1CONC1=O [CycloserineD]	-0.168	-0.144	0.141	0.0478
CC[C@H]1OC(=O)[C@H](C)[C@@H](O[C@H]2C[C@@](C)(OC)[C@@H](O)[C@H](C)O2)[C@H](C)[C@@H](O[C@@H]2O[C@H](C)C[C@H](N(C)C)[C@H]2O)[C@](C)(OC)C[C@@H](C)C(=O)[C@H](C)[C@@H](O)[C@]1(C)O [Clarithromycin] + Oc1cc(Cl)ccc1Oc1ccc(Cl)cc1Cl [Triclosan]	-0.0868	0.032	0.0396	0.0259
CCC[C@@H]1C[C@@H](C(=O)N[C@@H]([C@H]2O[C@H](SC)[C@H](O)[C@@H](O)[C@H]2O)[C@H](C)Cl)N(C)C1 [Clindamycin] + Oc1cc(Cl)ccc1Oc1ccc(Cl)cc1Cl [Triclosan]	-0.0305	0.0225	-0.101	0.065
CC(=O)O[C@H]1C[C@@]2(C)[C@@H](C[C@@H](O)[C@H]3[C@@]4(C)CC[C@@H](O)[C@@H](C)[C@@H]4CC[C@@]32C)/C1=C(\CCC=C(C)C)C(=O)O [Fusidic acid] + CN(C)C(=O)C(CCN1CCC(O)(c2ccc(Cl)cc2)CC1)(c1ccccc1)c1ccccc1 [Loperamide]	0.0226	0.0269	0.128	-0.0873
CC[C@H]1OC(=O)[C@H](C)[C@@H](O[C@H]2C[C@@](C)(OC)[C@@H](O)[C@H](C)O2)[C@H](C)[C@@H](O[C@@H]2O[C@H](C)C[C@H](N(C)C)[C@H]2O)[C@](C)(OC)C[C@@H](C)C(=O)[C@H](C)[C@@H](O)[C@]1(C)O [Clarithromycin] + CC[C@H]1OC(=O)[C@H](C)C(=O)[C@H](C)[C@@H](O[C@@H]2O[C@H](C)C[C@H](N(C)C)[C@H]2O)[C@](C)(OC)C[C@@H](C)C(=O)[C@H](C)[C@H]2N(CCCCn3cnc(-c4cccnc4)c3)C(=O)O[C@]12C [Telithromycin]	-0.0599	-0.0507	0.056	0.0309
N[C@@H]1CONC1=O [CycloserineD] + COc1ccc(C[C@H](N)C(=O)N[C@H]2[C@@H](O)[C@H](n3cnc4c(N(C)C)ncnc43)O[C@@H]2CO)cc1 [Puromycin]	0.0925	0.051	0.142	0.0439
O=C(N[C@H](CO)[C@H](O)c1ccc([N+](=O)[O-])cc1)C(Cl)Cl [Chloramphenicol] + CC1(C)S[C@@H]2[C@H](NC(=O)Cc3ccccc3)C(=O)N2[C@H]1C(=O)O [PenicillinG]	0.0631	-0.0428	-0.0461	0.0719
CCC[C@@H]1C[C@@H](C(=O)N[C@@H]([C@H]2O[C@H](SC)[C@H](O)[C@@H](O)[C@H]2O)[C@@H](C)O)N(C)C1 [Lincomycin] + Oc1cc(Cl)ccc1Oc1ccc(Cl)cc1Cl [Triclosan]	-0.224	0.0423	-0.119	-0.0218
